# Assays:
# adenovirus [1] = assay: Inhibition of adenovirus infection in 293T cells in vitro; type: cell-based
# Excerpt: Compound 96 inhibited adenovirus infection 100% in 293T cells in vitro.
# adenovirus [2] = assay: Inhibition of adenovirus infection in A549 cells in vitro; type: cell-based
# Excerpt: Compound 96 inhibited adenovirus infection 67% in A549 cells in vitro.
# [3] = tested on: NL-HX (T cell-tropic isolate) Virus; assay: Inactivation of HIV stock by 1 hr drug treatment, then PBMC infection, fluorescent focus assay (NL-HX); type: cell-based, Human Immunodeficiency Virus (HIV); conditions: for Average # infected cells/area / # infected cells/area (~500 cells): 8 days; for # infected cells/area (~500 cells): single area counts
# Experimental: (§1) In a study of the prophylactic effects of Compound 96 on Human Immunodeficiency Virus (HIV), virus stock solutions were inactivated by treatment with Compound 96. Stock solutions of viral types NL-HX-ADA having a p24 concentration of 4.1 μg/ml and NL-HX (P122) having a p24 concentration of 3.8 μg/ml were used for the study, along with a stock solution of Compound 96 having a concentration of 20 mg/ml in RPMI media.
# (§2) Concentrated stock solution of viruses were treated for 1 hr with equal volume of medium containing the drug at the following concentrations:
# (§3) After the 1 hr treatment period, the virus-drug solutions were diluted 1:1,000 with complete medium, and then mixed with an equal volume of Peripheral Blood Mononucleocyte (PBMC) cells, for a final dilution of virus and drug of 1:4,000.
# (§4) The infected cultures were then incubated without any washing or other changes in media for 4 days (for the M-tropic NL-HX-ADA type) and 8 days (for the T-tropic NL-HX type). The cultures were then assayed for infection using standard fluorescent focus assays to quantitate infected cells.
# [4] = tested on: human papillomavirus type 11 (HPV-11); assay: HPV-11 pre-treated with CTC 96, subcutaneous human foreskin xenograft infection model in SCID mouse, graft size; type: in vivo; conditions: for cGMD of the Grafts, Lower Quartile / cGMD of the Grafts, Median / cGMD of the Grafts, Upper Quartile: 12 weeks; for Composite Geometric Mean Diameters (cGMD) of the Grafts, Means: grafts at 12 weeks, replicates 1, 3, 4
# Experimental: The activity of CTC 96 on human papillomavirus type 11 (HPV-11) prior to infection was tested by using a subcutaneous human xenograft infection model in the severe combined immunodeficiency (SCID) mouse.
# Three different concentrations, 1%, 0.2% and 0.05%, of CTC 96 and a control (normal saline) were evaluated in HPV-11-infected internal human xenograft in the SCID mouse. The viral suspension was exposed for one hour with one of the four CTC 96 concentrations before being used to infect the human foreskin grafts.
# Each experiment was done in quadruplicate. Twelve mice were used in each replicate. For each replicate, the four treatment groups were made of 3 mice (3 animals per cage). Each mouse received under the skin of each flank one HPV-11-infected foreskin fragment. Two foreskin donors were used, one for the fragments implanted under the left flank and a different one for the fragments implanted under the right flank. The HPV-11-infected grafts were left to grow for 12 weeks, while the mice weights were monitored every other week. At the end of the 12 weeks, the animals were sacrificed and the grafts recovered, measured and processed.
# CTC 96 was applied to the virus directly, prior to infection. Just prior to exposure of the virus to CTC 96, 750 μl of normal saline was added to a vial containing 15 mg of dry CTC 96. The resulting solution contained 2% of CTC 96.
# CTC 96 was incubated for 1 hour at 37° C. with the viral suspension, which was then used to infect the human foreskin fragments.
# Neonatal foreskins from routine circumcision were collected at the nursery of a local hospital and placed in transport medium (Minimum Essential Medium, penicillin 25,000 U/ml, streptomycin 25 mg/mL), In a Petri dish, the foreskin's occluded side was removed using a scalpel, leaving the exposed skin prepared as a split-thickness graft. The foreskin was punched out using a 3 mm biopsy punch. One fragment was fixed in buffered formalin to serve as control in the histologic and immunocytochemical analyses. 3-4 fragments were snap frozen in liquid nitrogen, to serve as controls in the RT-PCR assay. The other fragments were split equally into four groups. Each group of fragments was dispensed in one of the vials containing 500 μl of pretreated viral suspension.
# Two foreskin donors collected within 24 hours of the procedure, were used in each replicate experiment. Each viral suspension received the foreskin fragments of both foreskin donors. To recognize the foreskin donors, in each experiment we used […]. The fragments were vortexed in the suspension and left to incubate for 60 minutes at 37° C. before being grafted.
# For the grafting, the mouse was anesthetized in an anesthesia chamber with 5% halothane to 2 liters of oxygen, until no corneal or pedal reflexes could be elicited. The animal was removed from the chamber, and the halothane adjusted to 2-2.5% to 1 liter of oxygen for continued administration via nose cone for the duration of the surgical procedure. The animals ears were notched for identification. The back skin was prepped with a povidone iodine swab. A 1 cm vertical incision of the skin was made on the flank with scissors. Through that incision, the subcutis was bluntly dissected with closed scissors caudad to the wound. One foreskin fragment from the […] donor was inserted in the caudad pocket, epidermis facing the mouse's skin, mucosal side in contact with the musculo-fascial plane (panniculus camosus) of the mouse. The incision was closed with two metal clips. The other side was grafted in the same manner with one foreskin fragment from the […] donor.
# The animals were otherwise sacrificed by cervical dislocation 12 weeks after graft implantation. Length, width, and height of the graft were measured and recorded. The graft were then removed and split in at least two parts. One part was fixed in buffered formalin. […]
# [5] = tested on: NL-HX-ADA (macrophage-tropic isolate) Virus; assay: Inactivation of HIV stock by 1 hr drug treatment, then PBMC infection, fluorescent focus assay (NL-HX-ADA); type: cell-based, Human Immunodeficiency Virus (HIV); conditions: for Average # infected cells/area / # infected cells/area (~500 cells): 4 days; for # infected cells/area (~500 cells): single area counts
# Experimental: as §1, §2, §3, §4
# [6] = any drug-treated sample vs control infection (800-1200 infected cells per well)
# [7] = any of the drug-treated samples
# [8] = even at the lowest concentration of drug tested (0.625 mg/ml), 1 hr treatment
# [9] = virus treated 1 hr at 0.625 mg/ml
# [10] = virus treated 1 hr at 1.25 mg/ml
# [11] = virus treated 1 hr at 2.5 mg/ml
smiles,measurement,setting,value
CC1=CC(C)=[N+]2CC[N+]3=C(C)C=C(C)[O][Co-4]23([n+]2cc[nH]c2C)([n+]2cc[nH]c2C)[O]1.[Br-] [Compound 96],inhibited adenovirus infection,adenovirus [1],100%
same,inhibited adenovirus infection,adenovirus [2],67%
same,reduction in infectivity,[3]; [6],"≥ 1,000 fold"
same,infected cells when the entire well was scanned,[3]; [7],No infected cells were detected
same,inactivation of treated virus,[3]; [8],completely inactivated
same,Average # infected cells/area,[3]; [9],0 cells/area
same,# infected cells/area (~500 cells),[3]; [9],0 cells/area
same,Average # infected cells/area,[3]; [10],0 cells/area
same,# infected cells/area (~500 cells),[3]; [10],0 cells/area
same,Average # infected cells/area,[3]; [11],0 cells/area
same,# infected cells/area (~500 cells),[3]; [11],0 cells/area
same,Average # infected cells/area,[3]; virus treated 1 hr at 5 mg/ml,0 cells/area
same,# infected cells/area (~500 cells),[3]; virus treated 1 hr at 5 mg/ml,0 cells/area
same,Average # infected cells/area,[3]; virus treated 1 hr at 10 mg/ml,0 cells/area
same,# infected cells/area (~500 cells),[3]; virus treated 1 hr at 10 mg/ml,0 cells/area
same,effect on graft size,[4]; 0.05% concentration,effective
same,"cGMD of the Grafts, Lower Quartile",[4]; CTC 96 0.05%,1.94 mm
same,"cGMD of the Grafts, Median",[4]; CTC 96 0.05%,2.01 mm
same,"cGMD of the Grafts, Upper Quartile",[4]; CTC 96 0.05%,2.13 mm
same,"cGMD of the Grafts, Lower Quartile",[4]; CTC 96 0.2%,1.70 mm
same,"cGMD of the Grafts, Median",[4]; CTC 96 0.2%,1.88 mm
same,"cGMD of the Grafts, Upper Quartile",[4]; CTC 96 0.2%,2.05 mm
same,"cGMD of the Grafts, Lower Quartile",[4]; CTC 96 1%,1.82 mm
same,"cGMD of the Grafts, Median",[4]; CTC 96 1%,1.94 mm
same,"cGMD of the Grafts, Upper Quartile",[4]; CTC 96 1%,2.08 mm
same,HPV-11-induced growth of the grafts,[4]; regardless of the concentration used,limited the HPV-11-inducted growth of the grafts
same,"Composite Geometric Mean Diameters (cGMD) of the Grafts, Means",[4]; virus exposed 1 hour to CTC 96 0.05%,2.02 mm
same,"Composite Geometric Mean Diameters (cGMD) of the Grafts, Means",[4]; virus exposed 1 hour to CTC 96 0.2%,1.86 mm
same,"Composite Geometric Mean Diameters (cGMD) of the Grafts, Means",[4]; virus exposed 1 hour to CTC 96 1%,1.95 mm
same,reduction in infectivity,[5]; [6],"≥ 1,000 fold"
same,infected cells when the entire well was scanned,[5]; [7],No infected cells were detected
same,inactivation of treated virus,[5]; [8],completely inactivated
same,Average # infected cells/area,[5]; [9],0 cells/area
same,# infected cells/area (~500 cells),[5]; [9],0 cells/area
same,Average # infected cells/area,[5]; [10],0 cells/area
same,# infected cells/area (~500 cells),[5]; [10],0 cells/area
same,Average # infected cells/area,[5]; [11],0 cells/area
same,# infected cells/area (~500 cells),[5]; [11],0 cells/area
same,Average # infected cells/area,[5]; virus treated 1 hr at 5 mg/ml,0 cells/area
same,# infected cells/area (~500 cells),[5]; virus treated 1 hr at 5 mg/ml,0 cells/area
same,Average # infected cells/area,[5]; virus treated 1 hr at 10 mg/ml,0 cells/area
same,# infected cells/area (~500 cells),[5]; virus treated 1 hr at 10 mg/ml,0 cells/area
